Data on 1 compound can be found in paper PMC10525732, “Assessing the Activity under Different Physico-Chemical Conditions, Digestibility, and Innocuity of a GAPDH-Related Fish Antimicrobial Peptide and Analogs Thereof” (Antibiotics, 2023).

This assay relates to E. coli ATCC 11229. Kind of assay: Minimal inhibitory concentration (MIC), broth microdilution. Format: cell-based. The following applies: Escherichia coli. The method, then: It was cultivated in tryptic soy broth (TSB) (BD, Sparks, NV, USA) at 37 °C and subcultured three times before being used for antimicrobial activity assays.
MICs for Escherichia coli ATCC 11229 were determined using a broth microdilution protocol. Briefly, twofold dilutions of peptide solutions ([…]) were made in Mueller Hinton Broth (MHB) (Oxoid, Basingstoke, UK) in 96-well polypropylene clear round bottom microplates (Corning Inc., Corning, NY, USA). Bacteria were cultured for 18 h and then diluted in MHB broth and inoculated in the microplates so that the final inoculum in the wells was 5 × 10^5 CFU/mL. The final volumes in the wells were 200 μL. Plates were then incubated for 16 h at 37 °C. […] Chloramphenicol (Sigma-Aldrich, St. Louis, MI, USA) was used as a positive control to ensure the validity of the tests. […] MBCs were defined as the lowest peptide concentrations that inhibited 99.9% or more of bacterial growth based on the initial 5 × 10^5 CFU/mL inocula in the wells [66]. Three independent repetitions were completed, and two technical replicates were done for each independent repetition.
The impact of different salts on the antimicrobial activity of SJGAP and analogs thereof was tested by determining the effect on their MIC and MBC values. The same procedure as described above was used, but different concentrations of salts were added to the MHB medium in the microplates. To test the impact of monovalent cations, NaCl (Fisher Scientific, Fair Lawn, NJ, USA) and KCl (EMD, Gibbstown, NJ, USA) were tested at final concentrations of 50, 150, and 300 mM in the wells.
The stability of the peptides at elevated temperatures was also tested. Mixtures of the peptides solubilized in MHB medium were heated to 100 °C for 15 min in a water bath. After cooling in an ice water bath, the solutions were loaded into the microplates and inoculated with the tested bacteria to conduct the MIC and MBC assays. For all tested conditions, three independent repetitions and two technical replicates for each of these repetitions were completed.
(In broth dilution the organism is exposed to a series of concentrations in liquid medium.)

Molecules are shown by their SMILES. Values after ≈ are worked out from the molar mass of the structure shown. Where two headings read alike, the source gives them in different places.

`O=C(N[C@H](CO)[C@H](O)c1ccc([N+](=O)[O-])cc1)C(Cl)Cl` [Chloramphenicol]: the MIC (usually the lowest concentration found to suppress growth) reads like this: (ATCC11229, 16 h, MHB + 1 mM CaCl2, 16 h, 37 °C, 5 × 10^5 CFU/mL, three independent repetitions, n.a. = no activity, read-out: MIC) 8 µg/mL; (ATCC11229, MHB + 1 mM MgCl2, n.a. = no activity, read-out: MIC) 8 µg/mL; (ATCC11229, MHB + 5 mM CaCl2, n.a. = no activity, read-out: MIC) 8 µg/mL; (ATCC11229, MHB + 5 mM MgCl2, n.a. = no activity, read-out: MIC) 8 µg/mL; (ATCC11229, MHB + 10 mM CaCl2, n.a. = no activity, read-out: MIC) 8 µg/mL; (ATCC11229, MHB + 10 mM MgCl2, n.a. = no activity, read-out: MIC) 8 µg/mL. In addition, the MIC is, setting by setting: (ATCC11229, MHB + 50 mM KCl, n.a. = no activity, * very weak bacterial growth detected, read-out: MIC) 8 µg/mL; (ATCC11229, MHB + 50 mM NaCl, n.a. = no activity, * very weak bacterial growth detected, read-out: MIC) 8 µg/mL; (ATCC11229, MHB + 150 mM KCl, n.a. = no activity, * very weak bacterial growth detected, read-out: MIC) 4 µg/mL; (ATCC11229, MHB + 150 mM NaCl, n.a. = no activity, * very weak bacterial growth detected, read-out: MIC) 4 µg/mL; (ATCC11229, MHB + 300 mM KCl, n.a. = no activity, read-out: MIC) 2 µg/mL; (ATCC11229, MHB + 300 mM NaCl, n.a. = no activity, read-out: MIC) 4 µg/mL. In addition, the MIC is, setting by setting: (ATCC11229, […], peptide in MHB heated 100 °C, 15 min in water bath, cooled, then assayed, n.a. = no activity, read-out: MIC after heating treatment) 8 µg/mL (≈ 24.8 µM); (ATCC11229, pH 5, MHB adjusted to pH 5 with 50 mM citrate buffer, * very weak bacterial growth detected, read-out: MIC) 0.5 µg/mL (≈ 1.55 µM); (ATCC11229, pH 6, MHB adjusted to pH 6 with 50 mM citrate buffer, * very weak bacterial growth detected, read-out: MIC) 2 µg/mL (≈ 6.19 µM); (ATCC11229, pH 7, MHB adjusted to pH 7 with 50 mM phosphate buffer, n.a. = no activity, read-out: MIC) 4 µg/mL (≈ 12.4 µM); (ATCC11229, pH 8, MHB adjusted to pH 8 with 50 mM phosphate buffer, n.a. = no activity, read-out: MIC) 4 µg/mL (≈ 12.4 µM); (ATCC11229, unmodified MHB (Ctrl −), n.a. = no activity, read-out: MIC) 8 µg/mL (≈ 24.8 µM).
